Results on five compounds are retold here after patent US10570184B2, “GLP-1/glucagon receptor co-agonists for medical use” (Novo Nordisk A/S, priority 2014, dated 2020).

As a reminder, the EC50 is the concentration needed to bring the measured effect to its halfway point.

Starred links: 1 amine or outer side, 2 acyl side, 3 side chain; linkers in the order of their positions; H or OH if unused. Non-standard residues stand in square brackets, D forms with d. Residues, ends and D or L forms follow the SMILES beside them. Groups on a side chain read outwards from the residue. *: point of attachment. C18 diacid = O=C(O)CCCCCCCCCCCCCCCCC(=O)*; γGlu = O=C(O)[C@H](CCC(=O)[*:2])N[*:1]; Ac4c = NC1(C(=O)O)CCC1; AEEA = NCCOCCOCC(=O)O; Aib = CC(C)(N)C(=O)O

One series concerns the target T1, human GLP-1 receptor (Homo sapiens, UniProt P43220).
T1 construct: expressed in transfected cells; host or cells: membranes of BHK cells (parent BHKTS13), clone FCW467-12A
As to the kind of experiment: Assay (I)(a) GLP-1 receptor activation, CRE luciferase reporter gene assay in BHK cells. The series is classed as cell-based. The note with it: without presence of serum albumin; read-out: GLP-1R EC50 (pM) [Assay (I)(a)]. In outline:
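Stable BHK clone expressing human GLP-1 receptor with CRE-driven firefly luciferase, 5×10EE3 cells/well in medium with 2% ovalbumin and 0.2% Pluronic F-68. Compounds at 1×10EE-13 to 1×10EE-6 M final, 3 h at 37° C.; luminescence read, EC50 (pM) from four-parameter fit.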
For orientation: A reporter such as luciferase makes a cellular process visible.

Series [1] is described as follows: Assay (III) ThT fibrillation assay for physical stability. The series is classed as physicochemical. The note with it: 250 μM in 10 mM HEPES buffer, 37° C., shaking 960 rpm. In outline:
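Glucagon derivative at 250 μM in 10 mM HEPES pH 7.5 with 1 μM ThT was incubated at 37 °C under 960 rpm orbital shaking. Fluorescence (ex 444/em 485 nm) was read every 20 min and fitted for lag time (t0−2τ) and kapp (1/τ). Recovery was soluble peptide after centrifugation/filtration, by RP-HPLC, as percent of initial.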

T1 sequence (P43220 24-463): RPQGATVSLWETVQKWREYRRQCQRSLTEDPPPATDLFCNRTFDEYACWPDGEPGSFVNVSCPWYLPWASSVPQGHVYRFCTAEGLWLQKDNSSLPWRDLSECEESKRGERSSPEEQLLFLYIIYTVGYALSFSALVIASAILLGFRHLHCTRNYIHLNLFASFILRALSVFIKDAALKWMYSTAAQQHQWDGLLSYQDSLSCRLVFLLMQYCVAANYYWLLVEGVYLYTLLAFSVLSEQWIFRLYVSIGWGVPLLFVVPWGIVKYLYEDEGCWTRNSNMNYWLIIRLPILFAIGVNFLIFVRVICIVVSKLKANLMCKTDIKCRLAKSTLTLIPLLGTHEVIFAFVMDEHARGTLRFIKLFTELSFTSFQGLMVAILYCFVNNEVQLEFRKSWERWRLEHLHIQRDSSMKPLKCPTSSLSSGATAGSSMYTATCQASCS

For the compound `CC[C@H](C)[C@H](NC(=O)[C@H](CC(C)C)NC(=O)[C@H](Cc1c[nH]c2ccccc12)NC(=O)[C@H](CCC(N)=O)NC(=O)[C@@H](NC(=O)[C@H](Cc1ccccc1)NC(=O)[C@H](CC(=O)O)NC(=O)[C@H](CCCNC(=N)N)NC(=O)[C@H](C)NC(=O)[C@H](CCCNC(=N)N)NC(=O)[C@H](CCCNC(=N)N)NC(=O)[C@H](C)NC(=O)[C@H](CC(=O)O)NC(=O)[C@H](CC(C)C)NC(=O)[C@H](Cc1ccc(O)cc1)NC(=O)[C@H](CCCCN)NC(=O)[C@H](CO)NC(=O)[C@H](CC(C)C)NC(=O)[C@H](CC(=O)O)NC(=O)[C@H](CO)NC(=O)[C@@H](NC(=O)[C@H](Cc1ccccc1)NC(=O)[C@@H](NC(=O)CNC(=O)[C@H](CCC(N)=O)NC(=O)C(C)(C)NC(=O)[C@@H](N)Cc1c[nH]cn1)[C@@H](C)O)[C@@H](C)O)C(C)C)C(=O)N[C@@H](CC(N)=O)C(=O)N[C@@H](CCCCNC(=O)CC[C@H](NC(=O)CC[C@H](NC(=O)COCCOCCNC(=O)COCCOCCNC(=O)CC[C@H](NC(=O)CCCCCCCCCCCCCCCCC(=O)O)C(=O)O)C(=O)O)C(=O)O)C(N)=O` [Chem. 20, N^ε29-[(4S)-4-carboxy-4-[[(4S)-4-carboxy-4-[[2-[2-[2-[[2-[2-[2-[[(4S)-4-carboxy-4-(17-carboxyheptadecanoylamino)butanoyl]amino]ethoxy]ethoxy]acetyl]amino]ethoxy]ethoxy]acetyl]amino]butanoyl]amino]butanoyl]-[Aib2,Leu10,Ala16,Arg20,Ile27,Lys29]-Glucagon amide] (H-H[Aib]QGTFTSDLSKYLDARRARDFVQWLINK([γGlu-γGlu-AEEA-AEEA-γGlu-C18 diacid])-NH2; N-terminus assumed), the EC50 at human GLP-1 receptor amounted to 4 pM. In series [1], the “ThT Assay Lag time (h) [Assay (III), pH 7.5]” value (from here on “ThT Assay Lag time (h)”) worked out at 45.0 h.

Regarding `CC[C@H](C)[C@H](NC(=O)[C@H](CC(C)C)NC(=O)[C@H](Cc1c[nH]c2ccccc12)NC(=O)[C@H](CCC(N)=O)NC(=O)[C@@H](NC(=O)[C@H](Cc1ccccc1)NC(=O)[C@H](CCC(=O)O)NC(=O)[C@H](CCCNC(=N)N)NC(=O)[C@H](C)NC(=O)[C@H](CCCNC(=N)N)NC(=O)[C@H](CCCNC(=N)N)NC(=O)[C@H](C)NC(=O)[C@H](CC(=O)O)NC(=O)[C@H](CC(C)C)NC(=O)[C@H](Cc1ccc(O)cc1)NC(=O)[C@H](CCCCN)NC(=O)[C@H](CO)NC(=O)[C@H](CC(C)C)NC(=O)[C@H](CC(=O)O)NC(=O)[C@H](CO)NC(=O)[C@@H](NC(=O)[C@H](Cc1ccccc1)NC(=O)[C@@H](NC(=O)CNC(=O)[C@H](CCC(N)=O)NC(=O)C(C)(C)NC(=O)[C@@H](N)Cc1c[nH]cn1)[C@@H](C)O)[C@@H](C)O)C(C)C)C(=O)N[C@@H](CC(N)=O)C(=O)N[C@@H](CCCCNC(=O)CC[C@H](NC(=O)CC[C@H](NC(=O)COCCOCCNC(=O)COCCOCCNC(=O)CC[C@H](NC(=O)CCCCCCCCCCCCCCCCC(=O)O)C(=O)O)C(=O)O)C(=O)O)C(N)=O` [Chem. 21, N^ε29-[(4S)-4-carboxy-4-[[(4S)-4-carboxy-4-[[2-[2-[2-[[2-[2-[2-[[(4S)-4-carboxy-4-(17-carboxyheptadecanoylamino)butanoyl]amino]ethoxy]ethoxy]acetyl]amino]ethoxy]ethoxy]acetyl]amino]butanoyl]amino]butanoyl]-[Aib2,Leu10,Ala16,Arg20,Glu21,Ile27,Lys29]-Glucagon amide] (H-H[Aib]QGTFTSDLSKYLDARRAREFVQWLINK([γGlu-γGlu-AEEA-AEEA-γGlu-C18 diacid])-NH2; N-terminus assumed), the half-maximal effective concentration (EC50) at human GLP-1 receptor was found to be 3 pM. Moreover, the “ThT Assay Lag time (h)” value in series [1] amounted to 45.0 h.

Regarding `CC[C@H](C)[C@H](NC(=O)[C@H](CC(C)C)NC(=O)[C@H](Cc1c[nH]c2ccccc12)NC(=O)[C@H](C)NC(=O)[C@@H](NC(=O)[C@H](Cc1ccccc1)NC(=O)[C@H](CC(=O)O)NC(=O)[C@H](CCCNC(=N)N)NC(=O)[C@H](C)NC(=O)[C@H](CCCNC(=N)N)NC(=O)[C@H](CCCNC(=N)N)NC(=O)[C@H](CC(C)C)NC(=O)[C@H](CC(=O)O)NC(=O)[C@H](CC(C)C)NC(=O)[C@H](Cc1ccc(O)cc1)NC(=O)[C@H](CCCCN)NC(=O)[C@H](CO)NC(=O)[C@H](CC(C)C)NC(=O)[C@H](CC(=O)O)NC(=O)[C@H](CO)NC(=O)[C@@H](NC(=O)[C@H](Cc1ccccc1)NC(=O)[C@@H](NC(=O)CNC(=O)[C@H](CCC(N)=O)NC(=O)C(C)(C)NC(=O)[C@@H](N)Cc1c[nH]cn1)[C@@H](C)O)[C@@H](C)O)C(C)C)C(=O)N[C@@H](CC(N)=O)C(=O)N[C@@H](CCCCNC(=O)CC[C@H](NC(=O)CC[C@H](NC(=O)COCCOCCNC(=O)COCCOCCNC(=O)CC[C@H](NC(=O)CCCCCCCCCCCCCCCCC(=O)O)C(=O)O)C(=O)O)C(=O)O)C(N)=O` [Chem. 24, N^ε29-[(4S)-4-carboxy-4-[[(4S)-4-carboxy-4-[[2-[2-[2-[[2-[2-[2-[[(4S)-4-carboxy-4-(17-carboxyheptadecanoylamino)butanoyl]amino]ethoxy]ethoxy]acetyl]amino]ethoxy]ethoxy]acetyl]amino]butanoyl]amino]butanoyl]-[Aib2,Leu10,Leu16,Arg20,Ala24,Ile27,Lys29]-Glucagon amide] (H-H[Aib]QGTFTSDLSKYLDLRRARDFVAWLINK([γGlu-γGlu-AEEA-AEEA-γGlu-C18 diacid])-NH2; N-terminus assumed), the concentration giving a half-maximal response (EC50) on human GLP-1 receptor came to 3 pM. In addition, the “ThT Assay Lag time (h)” value in series [1] is 45.0 h.

Consider `CC[C@H](C)[C@H](NC(=O)[C@H](CC(C)C)NC(=O)[C@H](Cc1c[nH]c2ccccc12)NC(=O)[C@H](CCC(N)=O)NC(=O)[C@@H](NC(=O)[C@H](Cc1ccccc1)NC(=O)[C@H](CCC(=O)O)NC(=O)[C@H](CCCNC(=N)N)NC(=O)[C@H](C)NC(=O)[C@H](CCCNC(=N)N)NC(=O)[C@H](CCCNC(=N)N)NC(=O)[C@H](CO)NC(=O)[C@H](CCC(=O)O)NC(=O)[C@H](CC(C)C)NC(=O)[C@H](Cc1ccc(O)cc1)NC(=O)[C@H](CCCCN)NC(=O)[C@H](CO)NC(=O)[C@H](CC(C)C)NC(=O)[C@H](CC(=O)O)NC(=O)[C@H](CO)NC(=O)[C@@H](NC(=O)[C@H](Cc1ccccc1)NC(=O)[C@@H](NC(=O)CNC(=O)[C@H](CCC(N)=O)NC(=O)C(C)(C)NC(=O)[C@@H](N)Cc1c[nH]cn1)[C@@H](C)O)[C@@H](C)O)C(C)C)C(=O)N[C@@H](CCCCNC(=O)CC[C@H](NC(=O)CC[C@H](NC(=O)COCCOCCNC(=O)COCCOCCNC(=O)CC[C@H](NC(=O)CC[C@H](NC(=O)CCCCCCCCCCCCCCCCC(=O)O)C(=O)O)C(=O)O)C(=O)O)C(=O)O)C(=O)N[C@H](C(N)=O)[C@@H](C)O` [Chem. 25, N^ε28-[(4S)-4-carboxy-4-[[(4S)-4-carboxy-4-[[2-[2-[2-[[2-[2-[2-[[(4S)-4-carboxy-4-[[(4S)-4-carboxy-4-(17-carboxyheptadecanoylamino)butanoyl]amino]butanoyl]amino]ethoxy]ethoxy]acetyl]amino]ethoxy]ethoxy]acetyl]amino]butanoyl]amino]butanoyl]-[Aib2,Leu10,Glu15,Arg20,Glu21,Ile27,Lys28]-Glucagon amide] (H-H[Aib]QGTFTSDLSKYLESRRAREFVQWLIK([γGlu-γGlu-AEEA-AEEA-γGlu-γGlu-C18 diacid])T-NH2; N-terminus assumed), for which the EC50 on human GLP-1 receptor was determined as 2 pM. The “ThT Assay Lag time (h)” value in series [1] is given as 23.0 h.

For the compound `CC[C@H](C)[C@H](NC(=O)[C@H](CC(=O)O)NC(=O)[C@H](CO)NC(=O)[C@@H](NC(=O)[C@H](Cc1ccccc1)NC(=O)[C@@H](NC(=O)CNC(=O)[C@H](CCC(N)=O)NC(=O)C1(NC(=O)[C@@H](N)Cc2c[nH]cn2)CCC1)[C@@H](C)O)[C@@H](C)O)C(=O)N[C@@H](CO)C(=O)N[C@@H](CCCCN)C(=O)N[C@@H](Cc1ccc(O)cc1)C(=O)N[C@@H](CC(C)C)C(=O)N[C@@H](CCC(=O)O)C(=O)N[C@@H](CO)C(=O)N[C@@H](CCCNC(=N)N)C(=O)N[C@@H](CCCNC(=N)N)C(=O)N[C@@H](C)C(=O)N[C@@H](CCCNC(=N)N)C(=O)N[C@@H](CCC(=O)O)C(=O)N[C@@H](Cc1ccccc1)C(=O)N[C@H](C(=O)N[C@@H](CCC(N)=O)C(=O)N[C@@H](Cc1c[nH]c2ccccc12)C(=O)N[C@@H](CC(C)C)C(=O)N[C@H](C(=O)N[C@@H](CCCCNC(=O)CC[C@H](NC(=O)CC[C@H](NC(=O)COCCOCCNC(=O)COCCOCCNC(=O)CC[C@H](NC(=O)CC[C@H](NC(=O)CCCCCCCCCCCCCCCCC(=O)O)C(=O)O)C(=O)O)C(=O)O)C(=O)O)C(=O)N[C@H](C(N)=O)[C@@H](C)O)[C@@H](C)CC)C(C)C` [Chem. 26, N^ε28-[(4S)-4-carboxy-4-[[(4S)-4-carboxy-4-[[2-[2-[2-[[2-[2-[2-[[(4S)-4-carboxy-4-[[(4S)-4-carboxy-4-(17-carboxyheptadecanoylamino)butanoyl]amino]butanoyl]amino]ethoxy]ethoxy]acetyl]amino]ethoxy]ethoxy]acetyl]amino]butanoyl]amino]butanoyl]-[Acb2,Ile10,Glu15,Arg20,Glu21,Ile27,Lys28]-Glucagon amide] (H-H[Ac4c]QGTFTSDISKYLESRRAREFVQWLIK([γGlu-γGlu-AEEA-AEEA-γGlu-γGlu-C18 diacid])T-NH2; N-terminus assumed), at human GLP-1 receptor, the concentration for a half-maximal effect (EC50) was 2 pM. Further, the “ThT Assay Lag time (h)” value in series [1] is listed as 45.0 h.
